Measurements from ChEMBL document CHEMBL3259629, “Discovery and optimization of piperidyl-1,2,3-triazole ureas as potent, selective, and in vivo-active inhibitors of α/β-hydrolase domain containing 6 (ABHD6)” (J Med Chem, 2013).

Legend:
Details in all cases: Neuro2a, 3 nM
[1] = molecular target: Prolyl endopeptidase (Mus musculus) (UniProt Q9QUR6)
Description: Inhibition of Perp in mouse Neuro2a cells at 3 nM after 4 hrs by ABPP-SILAC assay

[2] = molecular target: Acyl-protein thioesterase 2 (Mus musculus) (UniProt Q9WTL7)
Description: Inhibition of Lypla2 in mouse Neuro2a cells at 3 nM after 4 hrs by ABPP-SILAC assay

[3] = molecular target: T1, Acetylcholinesterase (Mus musculus) (UniProt P21836)
T1 sequence (whole entry): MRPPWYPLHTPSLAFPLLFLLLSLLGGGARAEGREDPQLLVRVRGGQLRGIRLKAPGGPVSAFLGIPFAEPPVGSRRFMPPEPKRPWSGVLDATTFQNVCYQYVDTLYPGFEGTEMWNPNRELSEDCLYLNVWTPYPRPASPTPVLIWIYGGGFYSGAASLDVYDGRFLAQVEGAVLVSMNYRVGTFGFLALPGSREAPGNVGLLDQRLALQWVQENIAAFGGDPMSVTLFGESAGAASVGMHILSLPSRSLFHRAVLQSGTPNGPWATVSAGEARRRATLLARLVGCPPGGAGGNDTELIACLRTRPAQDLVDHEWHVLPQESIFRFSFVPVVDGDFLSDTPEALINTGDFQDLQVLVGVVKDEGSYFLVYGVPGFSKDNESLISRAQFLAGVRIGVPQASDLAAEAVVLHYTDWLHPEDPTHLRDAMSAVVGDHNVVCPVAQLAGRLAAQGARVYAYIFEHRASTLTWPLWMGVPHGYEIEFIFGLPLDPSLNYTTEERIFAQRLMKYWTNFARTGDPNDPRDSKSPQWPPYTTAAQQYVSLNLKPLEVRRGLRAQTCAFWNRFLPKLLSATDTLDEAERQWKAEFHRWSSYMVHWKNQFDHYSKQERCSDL
Description: Inhibition of Ache in mouse Neuro2a cells at 3 nM after 4 hrs by ABPP-SILAC assay

[4] = molecular target: T2, Lysophospholipase-like protein 1 (Mus musculus) (UniProt Q3UFF7)
T2 sequence (whole entry): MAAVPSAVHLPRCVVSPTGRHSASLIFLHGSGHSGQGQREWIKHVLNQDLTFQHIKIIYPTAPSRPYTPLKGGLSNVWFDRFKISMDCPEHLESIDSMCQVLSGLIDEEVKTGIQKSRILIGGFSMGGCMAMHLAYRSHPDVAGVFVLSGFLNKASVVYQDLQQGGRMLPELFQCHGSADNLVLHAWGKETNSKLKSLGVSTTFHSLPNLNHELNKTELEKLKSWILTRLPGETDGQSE
Description: Inhibition of Lyplal1 in mouse Neuro2a cells at 3 nM after 4 hrs by ABPP-SILAC assay

[5] = molecular target: T3, Lysosomal phospholipase A and acyltransferase (Mus musculus) (UniProt Q8VEB4)
T3 sequence (whole entry): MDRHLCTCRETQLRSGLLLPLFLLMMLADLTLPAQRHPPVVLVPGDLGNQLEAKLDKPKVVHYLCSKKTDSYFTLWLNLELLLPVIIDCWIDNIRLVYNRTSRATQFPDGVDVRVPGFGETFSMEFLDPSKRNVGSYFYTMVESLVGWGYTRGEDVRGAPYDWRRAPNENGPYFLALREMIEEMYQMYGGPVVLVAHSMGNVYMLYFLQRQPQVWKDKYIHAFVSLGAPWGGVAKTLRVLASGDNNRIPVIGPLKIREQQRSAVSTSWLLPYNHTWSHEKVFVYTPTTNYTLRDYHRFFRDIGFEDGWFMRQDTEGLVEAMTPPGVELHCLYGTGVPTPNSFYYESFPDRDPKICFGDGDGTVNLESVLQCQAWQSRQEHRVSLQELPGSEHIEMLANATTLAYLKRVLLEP
Description: Inhibition of Lypla3 in mouse Neuro2a cells at 3 nM after 4 hrs by ABPP-SILAC assay

[6] = molecular target: T4, Lysophosphatidylserine lipase ABHD12 (Mus musculus) (UniProt Q99LR1)
T4 sequence (whole entry): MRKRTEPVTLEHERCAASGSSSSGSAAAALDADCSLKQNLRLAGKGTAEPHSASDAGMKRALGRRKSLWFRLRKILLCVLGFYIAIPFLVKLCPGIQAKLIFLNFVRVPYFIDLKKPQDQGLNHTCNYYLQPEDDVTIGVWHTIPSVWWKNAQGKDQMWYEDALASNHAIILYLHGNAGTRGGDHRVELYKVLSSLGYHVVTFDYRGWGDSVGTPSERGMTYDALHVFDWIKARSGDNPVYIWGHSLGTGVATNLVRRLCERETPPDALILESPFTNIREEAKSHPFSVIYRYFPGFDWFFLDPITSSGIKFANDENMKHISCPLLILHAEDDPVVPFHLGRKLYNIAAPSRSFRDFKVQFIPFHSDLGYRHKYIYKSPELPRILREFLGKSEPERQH
Description: Inhibition of Abhd12 in mouse Neuro2a cells at 3 nM after 4 hrs by ABPP-SILAC assay

[7] = molecular target: T5, Calcium-independent phospholipase A2-gamma (Mus musculus) (UniProt Q8K1N1)
T5 sequence (whole entry): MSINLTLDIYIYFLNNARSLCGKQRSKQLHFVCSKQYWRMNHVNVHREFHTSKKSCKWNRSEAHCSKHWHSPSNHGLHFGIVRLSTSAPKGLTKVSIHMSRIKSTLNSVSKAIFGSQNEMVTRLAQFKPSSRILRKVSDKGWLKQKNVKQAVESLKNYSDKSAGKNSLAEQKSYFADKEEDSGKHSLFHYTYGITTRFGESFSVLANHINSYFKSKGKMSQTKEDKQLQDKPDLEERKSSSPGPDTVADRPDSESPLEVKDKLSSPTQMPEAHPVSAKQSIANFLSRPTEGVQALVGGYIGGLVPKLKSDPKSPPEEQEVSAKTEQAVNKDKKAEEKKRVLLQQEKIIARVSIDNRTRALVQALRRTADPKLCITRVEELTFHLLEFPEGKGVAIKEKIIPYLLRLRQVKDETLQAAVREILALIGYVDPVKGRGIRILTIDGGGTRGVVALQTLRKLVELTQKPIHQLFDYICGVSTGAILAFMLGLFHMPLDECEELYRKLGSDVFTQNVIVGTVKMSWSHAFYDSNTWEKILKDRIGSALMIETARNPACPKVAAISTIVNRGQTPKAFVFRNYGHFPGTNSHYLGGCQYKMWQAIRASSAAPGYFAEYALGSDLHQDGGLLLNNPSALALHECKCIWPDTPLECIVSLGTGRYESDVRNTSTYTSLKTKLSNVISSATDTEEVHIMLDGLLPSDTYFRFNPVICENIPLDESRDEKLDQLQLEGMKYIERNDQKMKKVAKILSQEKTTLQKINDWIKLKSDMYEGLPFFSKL
Description: Inhibition of Pnpla8 in mouse Neuro2a cells at 3 nM after 4 hrs by ABPP-SILAC assay

Measured: inhibition

Chain of Prolyl endopeptidase (Mus musculus) (Q9QUR6 whole entry, looked up): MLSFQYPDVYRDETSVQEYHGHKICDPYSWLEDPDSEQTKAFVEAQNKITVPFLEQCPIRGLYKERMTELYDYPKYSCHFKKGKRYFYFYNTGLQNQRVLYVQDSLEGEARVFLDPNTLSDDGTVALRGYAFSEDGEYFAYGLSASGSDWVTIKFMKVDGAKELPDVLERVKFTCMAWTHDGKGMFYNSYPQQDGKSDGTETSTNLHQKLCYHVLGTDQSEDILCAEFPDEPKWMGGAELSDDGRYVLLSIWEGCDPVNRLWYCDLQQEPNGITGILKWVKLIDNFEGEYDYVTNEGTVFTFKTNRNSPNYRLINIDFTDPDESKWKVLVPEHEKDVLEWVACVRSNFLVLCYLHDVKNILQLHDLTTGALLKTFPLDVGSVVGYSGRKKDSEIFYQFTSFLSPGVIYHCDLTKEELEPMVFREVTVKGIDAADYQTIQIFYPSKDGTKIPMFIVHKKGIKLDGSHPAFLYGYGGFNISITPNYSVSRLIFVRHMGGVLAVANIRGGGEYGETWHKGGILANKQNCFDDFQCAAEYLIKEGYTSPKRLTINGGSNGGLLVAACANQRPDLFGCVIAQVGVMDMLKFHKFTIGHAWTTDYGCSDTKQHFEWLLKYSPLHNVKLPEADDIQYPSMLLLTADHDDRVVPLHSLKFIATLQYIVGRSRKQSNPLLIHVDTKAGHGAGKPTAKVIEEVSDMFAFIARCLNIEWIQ
Chain of Acyl-protein thioesterase 2 (Mus musculus) (Q9WTL7 whole entry): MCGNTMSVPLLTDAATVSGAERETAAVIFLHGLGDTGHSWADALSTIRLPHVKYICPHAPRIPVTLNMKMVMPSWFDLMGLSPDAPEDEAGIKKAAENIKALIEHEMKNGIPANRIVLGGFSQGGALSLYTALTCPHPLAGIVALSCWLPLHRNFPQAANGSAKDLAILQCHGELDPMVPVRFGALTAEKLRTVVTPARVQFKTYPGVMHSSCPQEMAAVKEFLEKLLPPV

O=C(c1cccc(-c2ccc(-c3cn(C(=O)N4CCCCC4c4ccccc4)nn3)cc2)c1)N1CCCCC1 (racemic)
< 50%: [1] | [2] | [3] | [4] | [5] | [6] | [7]

O=C(O)c1cccc(-c2ccc(-c3cn(C(=O)N4CCCCC4Cc4ccccc4)nn3)cc2)c1 (racemic)
< 50%: [1] | [2] | [3] | [4] | [5] | [6] | [7]

O=C(N1CCCCC1c1ccccc1)n1cc(-c2ccc(-c3cccc(CO)c3)cc2)nn1 (racemic)
< 50%: [1] | [2] | [3] | [4] | [5] | [6] | [7]
